Measured values published in PubChem BioAssay AID624167 (Sanford-Burnham Center for Chemical Genomics, 2012).
Active and inactive are the calls of the source.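 The calls were made as follows: active = mean IC50 for reducing PEG3 promoter reporter signal at or below a set limit, with IC50 above the limit in both counter screens; inactive = the rest, including counter screen hits.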

Columns and labels:
Assay in all cases: inhibition of PEG-3 promoter-driven reporter – cell-based, HeLa, luciferase, CREF/GAPDH counter-screen panel, dose response (AID 624167)
PEG-3 [1] = target: PEG-3 (UniProt Q6IN02); settings: HeLa PEG-Prom luciferase reporter, overnight, CREF/GAPDH counter-screens, mean of runs
Chain of PEG-3 (UniProt Q6IN02) (Q6IN02 whole entry, looked up): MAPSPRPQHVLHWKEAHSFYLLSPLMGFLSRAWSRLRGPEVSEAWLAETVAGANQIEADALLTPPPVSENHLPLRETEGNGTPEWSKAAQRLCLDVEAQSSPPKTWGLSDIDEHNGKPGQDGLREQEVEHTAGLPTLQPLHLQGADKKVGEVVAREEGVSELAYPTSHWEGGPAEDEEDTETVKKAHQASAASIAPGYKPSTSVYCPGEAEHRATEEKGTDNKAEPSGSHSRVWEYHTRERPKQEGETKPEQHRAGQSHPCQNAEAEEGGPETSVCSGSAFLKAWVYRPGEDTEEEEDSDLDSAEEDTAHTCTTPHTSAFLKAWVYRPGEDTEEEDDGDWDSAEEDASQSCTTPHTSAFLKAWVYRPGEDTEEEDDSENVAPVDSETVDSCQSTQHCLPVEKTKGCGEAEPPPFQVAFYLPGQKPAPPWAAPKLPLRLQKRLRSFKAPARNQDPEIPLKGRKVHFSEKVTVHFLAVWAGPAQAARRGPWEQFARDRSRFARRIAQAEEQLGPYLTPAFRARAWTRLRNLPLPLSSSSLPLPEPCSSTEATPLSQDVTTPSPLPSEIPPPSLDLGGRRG

PEG-3 [2] = settings: HeLa PEG-Prom luciferase reporter, overnight, CREF/GAPDH counter-screens
Rat fibroblasts (CREF) = settings: CREF/GAPDH counter-screens
[3] = run 1, dose range 1, individual replicate IC50 per panel
[4] = run 2, dose range 1, individual replicate IC50 per panel

| Compound | IC50 (PEG-3 [1]) | IC50 (PEG-3 [2]; [3]) [µM] | IC50 (PEG-3 [2]; [4]) [µM] | IC50 (Rat fibroblasts (CREF); mean of runs) | IC50 (Rat fibroblasts (CREF); [3]) [µM] | IC50 (Rat fibroblasts (CREF); [4]) [µM] |
| --- | --- | --- | --- | --- | --- | --- |
| CCC(=O)NC(c1cccs1)c1cc(Cl)c2cccnc2c1O (stereo not drawn) | 4.68 µM | 4.97 | 4.39 | 0.842 µM | < 100 | 0.842 |
| COC(=O)c1c(N)sc(C(=O)NCCc2ccccc2)c1C | 2.46 µM | 2.22 | 2.69 | 3.88 µM | 4.38 | 3.38 |
| COc1ccccc1C(=O)Nc1nc2ccccc2[nH]1 | 0.535 µM | 0.707 | 0.362 | 0.28 µM | 0.226 | 0.335 |
| O=C(/C=C/Nc1ccccc1Br)c1ccccn1 | 1.1 µM | 0.895 | 1.31 | 0.506 µM | 0.414 | 0.599 |
| O=C(NCCc1ccccc1)c1ccc2c(c1)OCCO2 | 0.636 µM | 0.646 | 0.625 | 1.73 µM | 1.36 | 2.1 |
| Cc1cc(S(=O)(=O)c2ccc(Cl)cc2)nc(S(=O)(=O)c2ccc(Cl)cc2)c1C#N | 5.14 µM | 6.14 | 4.14 | 13.1 µM | 10.9 | 15.3 |
| CC1CCCN(c2ncnc3c2cnn3-c2ccc(Cl)cc2)C1 (stereo not drawn) | 7.2 µM | 6 | 8.4 | 1.98 µM | 1.79 | 2.17 |
| O=C(Nc1cccc(C(=O)O)c1)Nc1ccc2c(c1)OCO2 | 8.34 µM | 3.5 | 13.2 | 17.4 µM | 14.2 | 20.7 |
| Cc1ccccc1-c1nc(-c2ccccn2)no1 | 3.9 µM | 2.98 | 4.81 | 1.33 µM | 1.08 | 1.57 |
| O=C1CCCCC1Sc1nnc(-c2ccc3c(c2)OCO3)o1 (stereo not drawn) | 1.7 µM | 1.69 | 1.71 | 7.83 µM | 8.19 | 7.46 |
| CC1CCN(c2ccc(-c3cccc(NC(=O)C(F)(F)F)c3)nn2)CC1 | 2.11 µM | 1.84 | 2.37 | 0.853 µM | 0.869 | 0.837 |
| C(=NN1CCCCCC1)c1ccc2ccccc2n1 | inactive | 3.59 | > 100 | 2.58 µM | 2.12 | 3.04 |
| CCOC(=O)c1cnc(Nc2nc3ccccc3o2)nc1C | 1.75 µM | 1.17 | 2.33 | 1.32 µM | 1.27 | 1.37 |
| COCCn1c(C)cc(C(=O)COC(=O)c2cccc(O)c2)c1C | 10.8 µM | 16.1 | 5.48 | 0.611 µM | 0.468 | 0.755 |
| CCOC(=O)c1c(-n2c(C)cc(C=C3C(=O)NC(=S)NC3=O)c2C)sc2c1CCCC2 | 5.69 µM | 5.9 | 5.47 | 11.3 µM | 20.3 | 2.35 |
| CN(C)c1ccc(/C=C/c2ccc3ccccc3n2)cc1 | 3.29 µM | 2.09 | 4.48 | 2.69 µM | 2.15 | 3.22 |
| CCOc1ccc(-c2ccc(SC)nn2)cc1 | 4.15 µM | 2.87 | 5.43 | 0.473 µM | 0.313 | 0.632 |
| Cc1c([N+](=O)[O-])cc(N2C(=O)C=CC2=O)cc1[N+](=O)[O-] | 8.22 µM | 9.19 | 7.25 | 17.2 µM | 16.8 | 17.6 |
| O=[N+]([O-])c1ccc(-c2ccc(/C=N/Nc3nc(NCc4ccccc4)nc(N4CCOCC4)n3)o2)cc1 | 5.66 µM | 6.13 | 5.18 | 8.54 µM | 9.4 | 7.68 |
| O=C(O)c1cccc(COc2ccccc2Cl)c1 | 1.83 µM | 0.679 | 2.97 | 20.2 µM | 38.8 | 1.55 |
| O=C(Cn1ncc(Cl)c(Cl)c1=O)N1CCc2ccccc21 | 8.73 µM | 10.1 | 7.38 | 14.3 µM | 18.5 | 10 |
| COc1cc(NS(C)(=O)=O)ccc1Nc1c2ccccc2nc2ccccc12 | 10.7 µM | 11 | 10.4 | 4.97 µM | 8.61 | 1.33 |
| CC(=O)NC(c1ccc(N(C)C)cc1)c1cc(Cl)c2cccnc2c1O (stereo not drawn) | 3.76 µM | 3.14 | 4.37 | 53.7 µM (inactive) | > 100 | 7.34 |
| COc1ccc(C(=O)Nc2nc3ccccc3s2)c(OC)c1 | 1.75 µM | 2.56 | 0.95 | 0.319 µM | 0.328 | 0.309 |

| Compound | IC50 (PEG-3 [1]) | IC50 (PEG-3 [2]; [3]) [µM] | IC50 (PEG-3 [2]; [4]) [µM] | IC50 (Rat fibroblasts (CREF); mean of runs) | IC50 (Rat fibroblasts (CREF); [3]) [µM] | IC50 (Rat fibroblasts (CREF); [4]) [µM] |
| --- | --- | --- | --- | --- | --- | --- |
| O=C(/C=C\Nc1ccc2c(c1)OCO2)c1ccccn1 | 1.51 µM | 1.15 | 1.87 | 1.09 µM | 1.04 | 1.14 |
| CCN(CCO)c1ccc(N=Nc2cc(C)[nH]n2)cc1 | 4.61 µM | 3 | 6.22 | 2.24 µM | 1.52 | 2.97 |
| CCN1C=CC(=C2C(=O)c3ccccc3C2=O)C=C1 | 0.957 µM | 0.834 | 1.08 | 0.85 µM | 0.947 | 0.753 |
| Cc1cccc(/C=N/Nc2ccc3ccccc3n2)c1 | 4.18 µM | 3.78 | 4.58 | 1.41 µM | 2.44 | 0.37 |
| OCC1OC(n2ccc3c(NO)ncnc32)C(O)C1O (stereo not drawn) | 0.378 µM | 0.433 | 0.323 | 3.21 µM | 2.77 | 3.64 |
| Cc1ccc(C(=O)O/N=C(\N)c2ccccn2)cc1 | 6.63 µM | 10.3 | 2.96 | 1.57 µM | 1.63 | 1.5 |
| CCn1nc(C)cc1-c1nnc(Sc2ncc([N+](=O)[O-])s2)n1C | 6.37 µM | 8.65 | 4.09 | 4.87 µM | 5.31 | 4.43 |
| Cc1ccc2nc(C)cc(Nc3ccc([N+](=O)[O-])cc3)c2c1 | 8 µM | 10.6 | 5.38 | 8.48 µM | 8.42 | 8.54 |
| C/C(=N/NC(=O)c1cc(C2CC2)[nH]n1)c1cccs1 | 6.81 µM | 5.93 | 7.69 | 3.84 µM | 3.85 | 3.83 |
| C/C(=N\NC(=O)c1n[nH]c2c1CCC2)c1cccs1 | 1.75 µM | 1.17 | 2.33 | 2.49 µM | 2.49 | 2.49 |
| COc1ccc(C(=O)NNC(=O)c2ccccn2)cc1 | 1.76 µM | 2.68 | 0.849 | 1.65 µM | 1.21 | 2.09 |
| Cc1cc(C(=O)COC(=O)c2ccccc2O)c(C)n1Cc1cccs1 | 3.32 µM | 1.79 | 4.86 | 1.36 µM | 0.812 | 1.9 |
| CN(C)c1ccc(/C=C/c2ccc3c4ccccc4ccc3[n+]2-c2ccccc2)cc1 | 10 µM | 10.5 | 9.52 | 17.8 µM | 16.9 | 18.7 |
| Cc1ccc(-c2cn3cc(C)ccc3n2)cc1 | 0.722 µM | 0.729 | 0.715 | 1.28 µM | 1.01 | 1.54 |
| COc1ccc(/C=C/c2nc3ccccc3n2C)cc1 | 1.91 µM | 1.28 | 2.54 | 3.46 µM | 3.41 | 3.51 |
| COc1cccc(/C=N/NC(=O)c2ccc(-c3ccccc3)cc2)c1O | 2.53 µM | 3.33 | 1.73 | 24.9 µM | 19.6 | 30.2 |
| Cc1cnc(NC(=O)c2ccc3c(c2)OCCO3)s1 | inactive | 0.647 | > 100 | 0.454 µM | 0.378 | 0.53 |
| CC(=O)N1CCCC(c2cc(C(=O)Nc3ccccc3)no2)C1 (stereo not drawn) | 6.41 µM | 4.87 | 7.94 | 9.51 µM | 9.26 | 9.76 |
| Cc1c(C)c2ccc(OCC(=O)Nc3ccccn3)c(C)c2oc1=O | 1.2 µM | 1.64 | 0.767 | 1.65 µM | 1.44 | 1.86 |
| Clc1cccc(-c2nc(-c3ccccn3)no2)c1 | 4.8 µM | 3.68 | 5.92 | 2.23 µM | 1.82 | 2.63 |
| COc1ccccc1CNCC(O)Cn1c2ccccc2c2ccccc21 (stereo not drawn) | 8.9 µM | 10.1 | 7.69 | 16.2 µM | 16.7 | 15.7 |
| OCCNc1c2ccccc2nc2ccccc12 | 8.99 µM | 10.2 | 7.76 | 0.77 µM | > 80 | 0.77 |
| O=C1C(Cl)=C(Nc2ccccc2)C(=O)c2ccccc21 | 7.18 µM | 12.5 | 1.9 | 7.13 µM | 4.48 | 9.78 |
| CC(=O)n1cc(N(C(=O)CCl)c2ccc(C)cc2)c2ccccc21 | 9.36 µM | 11.3 | 7.38 | 3.96 µM | 5.38 | 2.53 |
